Experimental data as given in PubChem BioAssay AID1963825 (Molecular Pharmacology Branch, DTP, NCI, 2024).

Assay: Anticancer human tumor 997537-175-T-J1-PDC patient-derived colon adenocarcinoma cell line growth inhibition [POLQ]
Conditions: 997537-175-T-J1-PDC complex spheroid viability, combination with POLQ inhibitors; for IC50: curve of first compound; for viability, T/C: stronger effect = lower value
Outline: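 Three-cell-type spheroids modelling solid tumor plus stroma served as the readout system; POL inhibitors were tested individually and in combination, concentration ranges set by clinical Cmax where known.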

[1] = second compound 0.0316 µM, first compound 0.0316 µM
[2] = second compound 0.0316 µM, first compound 0.1 µM
[3] = second compound 0.0316 µM, first compound 0.316 µM
[4] = second compound 0.0316 µM, first compound 1 µM
[5] = second compound 0.0316 µM, first compound 3.16 µM
[6] = second compound 0.0316 µM, first compound 10 µM
[7] = second compound 0.1 µM, first compound 0.0316 µM
[8] = second compound 0.1 µM, first compound 0.1 µM
[9] = second compound 0.1 µM, first compound 0.316 µM
[10] = second compound 0.1 µM, first compound 1 µM
[11] = second compound 0.1 µM, first compound 3.16 µM
[12] = second compound 0.1 µM, first compound 10 µM
[13] = second compound 0.316 µM, first compound 0.0316 µM
[14] = second compound 0.316 µM, first compound 0.1 µM
[15] = second compound 0.316 µM, first compound 0.316 µM
[16] = second compound 0.316 µM, first compound 1 µM
[17] = second compound 0.316 µM, first compound 3.16 µM
[18] = second compound 0.316 µM, first compound 10 µM
[19] = second compound 1 µM, first compound 0.0316 µM
[20] = second compound 1 µM, first compound 0.1 µM
[21] = second compound 1 µM, first compound 0.316 µM
[22] = second compound 1 µM, first compound 1 µM
[23] = second compound 1 µM, first compound 3.16 µM
[24] = second compound 1 µM, first compound 10 µM
[25] = second compound 3.16 µM, first compound 0.0316 µM
[26] = second compound 3.16 µM, first compound 0.1 µM
[27] = second compound 3.16 µM, first compound 0.316 µM
[28] = second compound 3.16 µM, first compound 1 µM
[29] = second compound 3.16 µM, first compound 3.16 µM
[30] = second compound 3.16 µM, first compound 10 µM
[31] = second compound 10 µM, first compound 0.0316 µM
[32] = second compound 10 µM, first compound 0.1 µM
[33] = second compound 10 µM, first compound 0.316 µM
[34] = second compound 10 µM, first compound 1 µM
[35] = second compound 10 µM, first compound 3.16 µM
[36] = second compound 10 µM, first compound 10 µM
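Further: luminescence signal used as a surrogate for viable cells; spheroids exposed to drugs for seven days before readout.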

CC1COCCN1c1cc(C2(O)CC3CCC(C2)O3)c2cnn(-c3ccn[nH]3)c2n1 (centres undefined) + COC1C(OC(N)=O)C(O)C(Oc2ccc3c(O)c(NC(=O)c4ccc(O)c(CC=C(C)C)c4)c(=O)oc3c2C)OC1(C)C showed an IC50 (second compound 0.0316 µM) of 0.234 µM, an IC50 (second compound 0.1 µM) of 0.276 µM and an IC50 (second compound 0.316 µM) of 0.29 µM. The IC50 (second compound 1 µM) was greater than 10 µM, the IC50 (second compound 3.16 µM) was greater than 10 µM and the IC50 (second compound 10 µM) was greater than 10 µM. It also gave a viability, T/C [1] of 72.4%, a viability, T/C [2] of 70.1% and a viability, T/C [3] of 42.2%. For the same compound, the viability, T/C [4] was 36.9%, the viability, T/C [5] was 40.1% and the viability, T/C [6] was 52%. It also gave a viability, T/C [7] of 75.6%, a viability, T/C [8] of 81.3% and a viability, T/C [9] of 36%. It also gave a viability, T/C [10] of 37.9%, a viability, T/C [11] of 50.3% and a viability, T/C [12] of 60.8%. For the same compound, the viability, T/C [13] was 84.2%, the viability, T/C [14] was 66.8% and the viability, T/C [15] was 41.2%. For the same compound, the viability, T/C [16] was 51.1%, the viability, T/C [17] was 51.4% and the viability, T/C [18] was 50.8%. For the same compound, the viability, T/C [19] was 82.9%, the viability, T/C [20] was 68% and the viability, T/C [21] was 59.5%. It also gave a viability, T/C [22] of 55.3%, a viability, T/C [23] of 64.2% and a viability, T/C [24] of 42.8%. It also gave a viability, T/C [25] of 82.8%, a viability, T/C [26] of 68.1% and a viability, T/C [27] of 47.9%. The viability, T/C [28] was 48.9%, the viability, T/C [29] was 61.7% and the viability, T/C [30] was 50.8%. It also gave a viability, T/C [31] of 71.3%, a viability, T/C [32] of 60.5% and a viability, T/C [33] of 41.1%. For the same compound, the viability, T/C [34] was 58.3%, the viability, T/C [35] was 61.7% and the viability, T/C [36] was 63.6%.
Compound CNCc1ccc(-c2[nH]c3cc(F)cc4c3c2CCNC4=O)cc1 + Cc1cccc(N(C)C(=O)C2C(O)CCN2c2nc(C)cc(C(F)(F)F)c2C#N)c1 has an IC50 (second compound 0.0316 µM) greater than 10 µM, an IC50 (second compound 0.1 µM) greater than 10 µM and an IC50 (second compound 0.316 µM) greater than 10 µM. For the same compound, the IC50 (second compound 1 µM) was greater than 10 µM, the IC50 (second compound 3.16 µM) was greater than 10 µM and the IC50 (second compound 10 µM) was greater than 10 µM. It also gave a viability, T/C [1] of 94.7%, a viability, T/C [2] of 114% and a viability, T/C [3] of 81.6%. For the same compound, the viability, T/C [4] was 87.9%, the viability, T/C [5] was 109% and the viability, T/C [6] was 85.3%. For the same compound, the viability, T/C [7] was 119%, the viability, T/C [8] was 94.2% and the viability, T/C [9] was 103%. For the same compound, the viability, T/C [10] was 104%, the viability, T/C [11] was 101% and the viability, T/C [12] was 121%. For the same compound, the viability, T/C [13] was 105%, the viability, T/C [14] was 103% and the viability, T/C [15] was 99.5%. The viability, T/C [16] was 102%, the viability, T/C [17] was 119% and the viability, T/C [18] was 89.5%. For the same compound, the viability, T/C [19] was 92.4%, the viability, T/C [20] was 113% and the viability, T/C [21] was 99%. For the same compound, the viability, T/C [22] was 86.3%, the viability, T/C [23] was 99.8% and the viability, T/C [24] was 90.2%. It also gave a viability, T/C [25] of 116%, a viability, T/C [26] of 84.8% and a viability, T/C [27] of 99.8%. It also gave a viability, T/C [28] of 117%, a viability, T/C [29] of 82.1% and a viability, T/C [30] of 96.9%. It also gave a viability, T/C [31] of 103%, a viability, T/C [32] of 112% and a viability, T/C [33] of 94.2%. It also gave a viability, T/C [34] of 101%, a viability, T/C [35] of 95.5% and a viability, T/C [36] of 89.4%.
